Data taken from PubChem BioAssay AID1963969 (Molecular Pharmacology Branch, DTP, NCI, 2024).
Where “and” joins values, the source holds several entries; their conditions need not be identical. Identical values can stand only once.

Test system: 817829-284-R-J1-PDC multi-cell spheroid viability
Assay: Anticancer human tumor 817829-284-R-J1-PDC patient-derived colon adenocarcinoma cell line growth inhibition [PI3K]
Details: for viability, T/C: stronger effect = lower value
Text: Combinatorial screen of targeted agents with the PI3K inhibitors inavolisib, alpelisib, duvelisib, and copanlisib in multi-cell type tumor spheroids
A high-throughput screen of multi-cell type tumor spheroids was designed to identify active combinations of targeted small molecules and PI3K pathway inhibitors. Complex spheroids include a stromal component modeled by human endothelial cells (HUVEC) and fibroblasts modeled by human mesenchymal stem cells (MSCs). The concentration ranges selected for each drug and investigational agent were based upon clinically achievable concentrations if the clinical Cmax of the agent was known.
Compounds. The drugs and investigational agents: inavolisib (NSC800729), alpelisib (NSC765974), duvelisib (NSC772469), copanlisib (NSC816437), ipatasertib (NSC767898), afuresertib (NSC778305), talazoparib (NSC767125), sapanisertib (NSC764658), selumetinib (NSC741078), tovorafenib (DAY101, NSC766906), vemurafenib (NSC761431), ravoxertinib (NSC781343), sotorasib (NSC818433), MRTX1133 (NSC 836407), abemaciclib (NSC 768073), palbociclib (NSC758247), venetoclax (NSC 766270), SY5609 (NSC837396), enzalutamide (NSC755605), and darolutamide (NSC825331), were obtained from the National Cancer Institute (NCI) Developmental Therapeutics Program Chemical Repository. The FDA-approved anticancer drug set is available from the NCI Developmental Therapeutics Program. […] The stock solutions were prepared in dimethyl sulfoxide (DMSO, Sigma-Aldrich, St. Louis, MO, cat. D2650) at 800-fold the tested concentration and stored at -70 degrees C prior to their use. All drugs and investigational agents were tested over a range starting from a high concentration at or near the clinical Cmax and decreasing in half-log increments. If the clinical Cmax for an agent had not been determined, the highest concentration tested was 10 microM.
Cell Culture. All cells were maintained in an incubator at 37 degrees C and 5% CO2 with 95% humidity. The PDC lines were cultured according to standard operating procedures established by the NCI PDMR (https://pdmr.cancer.gov/sops/default.htm). All PDCs were thawed and cultured in Matrigel-coated flasks prepared with a working solution of 1X Ham's F-12 nutrient mix, without supplementation (Invitrogen, Waltham, MA, cat. 11765054), 100 U/mL penicillin-streptomycin (Invitrogen, cat. 15140122), and 2.5% Matrigel (Corning Inc., Corning, NY, cat. 354248) for the first three passages. The 354836-022-R-J1-PDC, 475296-252-R-J1-PDC, and 997726-040-R-J2-PDC lines were cultured in 6A media, which includes advanced DMEM/F-12 (Thermo Fisher Scientific, cat. 12634028), 10 mM HEPES (Thermo Fisher Scientific, cat. 15630080), 1X GlutaMAX supplement (Thermo Fisher Scientific, cat. 35050061), 0.1 mg/mL primocin (InvivoGen, San Diego, CA, cat. ant-pm-2), 10% defined fetal bovine serum, heat inactivated (HyClone Laboratories Inc., Logan, UT, cat. SH30070.03HI), 50% L-WRN conditioned media (ATCC, cat. CRL-3276), 1.25 mM N-Acetyl-L-cysteine (Sigma-Aldrich, cat. A9165), 10 mM nicotinamide (Sigma-Aldrich, cat. N0636), 1X B-27 supplement (Thermo Fisher Scientific, cat. 17504044), 1X N-2 supplement (Thermo Fisher Scientific, cat. 17502048), and 10 microM Y-27632 dihydrochloride (Tocris Bioscience, Bristol, United Kingdom, cat. 1254). The 624824-186-R-J2-PDC line was cultured in 6C/Colon 1B media, which includes all 6A media components plus 50 ng/mL human EGF recombinant protein (Thermo Fisher Scientific, cat. PHG0311). […]

[1] = curve of first compound, second compound 0.0316 µM
[2] = curve of first compound, second compound 0.1 µM
[3] = curve of first compound, second compound 0.316 µM
[4] = curve of first compound, second compound 1 µM
[5] = curve of first compound, second compound 3.16 µM
[6] = curve of first compound, second compound 10 µM
[7] = second compound 0.0316 µM, first compound 0.000316 µM
[8] = second compound 0.0316 µM, first compound 0.001 µM
[9] = second compound 0.0316 µM, first compound 0.00316 µM
[10] = second compound 0.0316 µM, first compound 0.01 µM
[11] = second compound 0.0316 µM, first compound 0.0316 µM
[12] = second compound 0.0316 µM, first compound 0.1 µM
[13] = second compound 0.1 µM, first compound 0.000316 µM
[14] = second compound 0.1 µM, first compound 0.001 µM
[15] = second compound 0.1 µM, first compound 0.00316 µM
[16] = second compound 0.1 µM, first compound 0.01 µM
[17] = second compound 0.1 µM, first compound 0.0316 µM
[18] = second compound 0.1 µM, first compound 0.1 µM
[19] = second compound 0.316 µM, first compound 0.000316 µM
[20] = second compound 0.316 µM, first compound 0.001 µM
[21] = second compound 0.316 µM, first compound 0.00316 µM
[22] = second compound 0.316 µM, first compound 0.01 µM
[23] = second compound 0.316 µM, first compound 0.0316 µM
[24] = second compound 0.316 µM, first compound 0.1 µM
[25] = second compound 1 µM, first compound 0.000316 µM
[26] = second compound 1 µM, first compound 0.001 µM
[27] = second compound 1 µM, first compound 0.00316 µM
[28] = second compound 1 µM, first compound 0.01 µM
[29] = second compound 1 µM, first compound 0.0316 µM
[30] = second compound 1 µM, first compound 0.1 µM
[31] = second compound 3.16 µM, first compound 0.000316 µM
[32] = second compound 3.16 µM, first compound 0.001 µM
[33] = second compound 3.16 µM, first compound 0.00316 µM
[34] = second compound 3.16 µM, first compound 0.01 µM
[35] = second compound 3.16 µM, first compound 0.0316 µM
[36] = second compound 3.16 µM, first compound 0.1 µM
[37] = second compound 10 µM, first compound 0.000316 µM
[38] = second compound 10 µM, first compound 0.001 µM
[39] = second compound 10 µM, first compound 0.00316 µM
[40] = second compound 10 µM, first compound 0.01 µM
[41] = second compound 10 µM, first compound 0.0316 µM
[42] = second compound 10 µM, first compound 0.1 µM
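Also: spheroids exposed to agents for seven days before readout.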
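For viability, T/C in this document: percent of vehicle DMSO control viability which is 100%.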

CC(=O)c1c(C)c2cnc(Nc3ccc(N4CCNCC4)cn3)nc2n(C2CCCC2)c1=O + CC(Nc1ncnc2nc[nH]c12)c1cc2cccc(Cl)c2c(=O)n1-c1ccccc1
IC50 [1]: 70.9 nM | IC50 [2]: 74 nM | IC50 [3]: > 100 nM | IC50 [4]: 71.2 nM | IC50 [5]: 14.3 nM | IC50 [6]: 33.4 nM | viability, T/C [7]: 96% | viability, T/C [8]: 68.1% | viability, T/C [9]: 74.3% | viability, T/C [10]: 75.4% | viability, T/C [11]: 77% | viability, T/C [12]: 38.6% | viability, T/C [13]: 92.5% | viability, T/C [14]: 79.8% | viability, T/C [15]: 74.5% | viability, T/C [16]: 90.2% | viability, T/C [17]: 79% | viability, T/C [18]: 39.4% | viability, T/C [19]: 90.8% | viability, T/C [20]: 85% | viability, T/C [21]: 101% | viability, T/C [22]: 60.2% | viability, T/C [23]: 56.5% | viability, T/C [24]: 51.3% | viability, T/C [25]: 101% | viability, T/C [26]: 73.1% | viability, T/C [27]: 78.7% | viability, T/C [28]: 83.5% | viability, T/C [29]: 59.8% | viability, T/C [30]: 43.5% | viability, T/C [31]: 65% | viability, T/C [32]: 134% | viability, T/C [33]: 78.8% | viability, T/C [34]: 57.5% | viability, T/C [35]: 37.8% | viability, T/C [36]: 42.7% | viability, T/C [37]: 60.1% | viability, T/C [38]: 54.4% | viability, T/C [39]: 51% | viability, T/C [40]: 66.3% | viability, T/C [41]: 46.6% | viability, T/C [42]: 34.4%

CC(C)n1nc(-c2ccc3oc(N)nc3c2)c2c(N)ncnc21 + CC(Nc1ncnc2nc[nH]c12)c1cc2cccc(Cl)c2c(=O)n1-c1ccccc1
IC50 [1]: 19.7 nM | IC50 [2]: 33.9 nM | IC50 [3]: 15.8 nM | IC50 [4]: 19.5 nM | IC50 [5]: 9.43 nM | IC50 [6]: 10.9 nM | viability, T/C [7]: 74.9% | viability, T/C [8]: 107% | viability, T/C [9]: 57.3% | viability, T/C [10]: 62.7% | viability, T/C [11]: 44.8% | viability, T/C [12]: 18.1% | viability, T/C [13]: 100% | viability, T/C [14]: 121% | viability, T/C [15]: 64% | viability, T/C [16]: 80% | viability, T/C [17]: 56.7% | viability, T/C [18]: 18.7% | viability, T/C [19]: 135% | viability, T/C [20]: 77.2% | viability, T/C [21]: 94.2% | viability, T/C [22]: 59.9% | viability, T/C [23]: 31.3% | viability, T/C [24]: 27.5% | viability, T/C [25]: 89.4% | viability, T/C [26]: 124% | viability, T/C [27]: 74.4% | viability, T/C [28]: 66.3% | viability, T/C [29]: 41.9% | viability, T/C [30]: 18.9% | viability, T/C [31]: 106% | viability, T/C [32]: 86.4% | viability, T/C [33]: 96% | viability, T/C [34]: 47.4% | viability, T/C [35]: 44.2% | viability, T/C [36]: 23.8% | viability, T/C [37]: 80% | viability, T/C [38]: 68.5% | viability, T/C [39]: 106% | viability, T/C [40]: 52.1% | viability, T/C [41]: 30.3% | viability, T/C [42]: 17.8%

Cn1ncnc1[C@H]1c2n[nH]c(=O)c3cc(F)cc(c23)N[C@@H]1c1ccc(F)cc1
viability, T/C (compound 0.000316 µM): 113% and 70.3% | viability, T/C (compound 0.001 µM): 106% and 90.1% | viability, T/C (compound 0.00316 µM): 83.9% and 67% | viability, T/C (compound 0.01 µM): 75.3% | viability, T/C (compound 0.0316 µM): 55.6% and 55% | viability, T/C (compound 0.1 µM): 41.3% and 46.6% | IC50 (curve of compound): 51.4 nM and 62.8 nM
